According to US20040106124A1, “Methods for improving the treatment of major depression by genotyping for the gene for apolipoproteine e4 and for improving the terapeutic response of humans having major depression and carrying the gene for apolipoprotein e4” (priority 2001, published 2004):

Legend:
[1] = system: patients 65 years of age and older with major depression; assay: Hamilton Depression Rating Scale (HDRS-17, HDRS-21) in 8-week double-blind comparison of paroxetine and mirtazapine; type: in vivo, human; settings: for HDRS-21 scores, ε4 carriers compared with those without an ε4 allele: interaction p=0.033; for HDRS-17 scores, ε4 carriers compared with those without an ε4 allele: interaction p=0.036; for HDRS-21 50% responders: patients carrying an ε4 allele; for rate and onset of antidepressant response, mirtazapine compared with paroxetine: early weeks of treatment, summary of the example
Excerpt: Hamilton Depression Rating Scale (HDRS; 17 and 21 item versions of a structured interview) (Hamilton, M., J. Neurol. Neurosurg. Psychiatr. 23:56-62, 1960; Hamilton, M., Br. J. Soc. Clin. Psychol. 6:278-296,1967). […] In other words, a lower rating in the HDRS scale signifies less depression. In contrast, HDRS remitters, which are those patients showing the least depression, are defined as subjects who have an HDRS-17 score of less than 7 at a post-baseline visit.
(§1) J. Psychiatr. 154:603-608, 1997.
(§2) All statistical analyses were performed using the SAS software package (available from SAS Institute). For clinical measures of depression (HDRS-21, HDRS-17, GDS, and CGI), analyses of covariance were performed with baseline values as the covariate, and apoE genotype (ε4 allele carrier vs. non-carder) and medication (mirtazapine, paroxetine) as the predictors. For remitter and responder analyses of clinical measures of depression, Cochran-Mantel-Haenszel statistics were used. For comparison of medication and genotype groups on baseline demographic measures, two-way analyses of variance were used.

[2] = system: patients 65 years of age and older with major depression; assay: Geriatric Depression Scale (GDS) in 8-week double-blind comparison; type: in vivo, human; settings: for GDS scores, ε4 carriers compared with noncarriers / 50% reduction in GDS score, ε4 carriers compared with those without an ε4 allele / GDS scores, patients with an ε4 allele compared with those without: day 14; for GDS scores, ε4 carriers compared with noncarriers: Caucasian patients; for 50% reduction in GDS score, ε4 carriers compared with those without an ε4 allele / GDS scores, patients with an ε4 allele compared with those without / 50% reduction in GDS score, ε4 carriers compared with noncarriers: full cohort; for number of patients showing a 50% reduction in GDS, ε4 carriers compared with noncarriers / 50% reduction in GDS score, ε4 carriers compared with noncarriers: day 28; for number of patients showing a 50% reduction in GDS, ε4 carriers compared with noncarriers: Caucasian subjects
Protocol: Geriatric Depression Scale (GDS) (Yesavage, J. A. et al., J. Psychiatr. Res. 17:37-49, 1983), a self-rating scale developed specifically for rating depression in the elderly. In the GDS, a lower rating signifies less depression. GDS 50% responders are defined as subjects with a decrease on a post-baseline assessment of at least 50% as compared to baseline.
as §1, §2

[3] = system: patients 65 years of age and older with major depression; assay: Clinical Global Impression Scale (CGI) in 8-week double-blind comparison; type: in vivo, human; settings: day 14; for CGI scores, ε4 carriers compared with those without an ε4 allele: interaction p=0.029
Excerpt: Clinical Global Impression Scale (CGI) (Guy, W., ECDEU Assessment Manual for Psychopharmacology, DHEW Publication No. (ADM) 76-338, rev. 1976). The CGI scale is a global 7-point rating of the severity of the illness taking into account the preceding week (CGI-Severity) and a global 7-point rating of the clinical status of the subject since baseline (CGI-Change). A responder is defined as being “Much Improved” or “Very Much Improved”—having a CGI score of at least 2 according to CGI-Change. Thus, a higher CGI-Severity score corresponds to more severe depression whereas a higher CGI-Change score corresponds to lessened depression, or an improvement in alleviating the symptoms of depression.
as §1, §2

[4] = system: patients 65 years of age and older with major depression; assay: Mini Mental State Examination (MMSE), cognition, in 8-week double-blind comparison; type: in vivo, human; settings: for mean MMSE score, ε4 carriers compared with noncarriers: week 8, full cohort, analysis of covariance
Protocol: (§3) A multi-center, randomized, double-blind, 8-week comparison of paroxetine and mirtazapine was performed for 246 nondemented, cognitively intact patients 65 years of age and older with major depression. All patients were genotyped at the apoE locus as discussed further below.
(§4) After an initial evaluation period, the mirtazapine patients started with a 15 mg dose per day. After two weeks of treatment (Day 14), patients' dosages were raised to 30 mg per day. […] Subjects who rate “Much Improved” or “Very Much Improved” on the CGI Scale I continued on the same dose they were receiving during the previous week.
(§5) For paroxetine, the dosing system was the same, except that the starting dosage was 20 mg per day, raised to 30 mg per day, and to a maximum of 40 mg per day.
This test represents a brief standardized method to grade cognitive mental status. The test assesses orientation, attention, immediate and short-term recall, language, and the ability to follow verbal and written commands. The lower the score, the lower the cognitive mental status.
To screen patients for the gene, genomic DNA was extracted from EDTA-treated whole blood using the Puregene DNA extraction kit (available from Gentra Systems). […] J. Psychiatr. 154:603-608, 1997. Genotypes were determined by two observers blind as to the clinical or neuropathological diagnosis.
All statistical analyses were performed using the SAS software package (available from SAS Institute). […] For remitter and responder analyses of clinical measures of depression, Cochran-Mantel-Haenszel statistics were used. For comparison of medication and genotype groups on baseline demographic measures, two-way analyses of variance were used.

[5] = system: patients 65 years of age and older with major depression; assay: Discontinuation due to adverse events in 8-week double-blind comparison; type: in vivo, human
Protocol: as §2

[6] = Plasma drug concentrations in 8-week double-blind comparison
Protocol: as §3, §4, §5

[7] = day 14, patients with an ε4 allele, full cohort
[8] = day 14, Caucasian patients, p=0.006

| Compound | HDRS scores, improvement of ε4 carriers compared with noncarriers ([1]; day 14, Caucasian patients) | HDRS-21 scores, ε4 carriers compared with those without an ε4 allele ([1]; day 14, full cohort) | HDRS-17 scores, ε4 carriers compared with those without an ε4 allele ([1]; day 14, full cohort) | HDRS-21 50% responders ([1]; day 14, full cohort) | HDRS-17 remitters [1, 7] | rate and onset of antidepressant response, mirtazapine compared with paroxetine [1] | GDS scores, ε4 carriers compared with noncarriers [2] | 50% reduction in GDS score, ε4 carriers compared with those without an ε4 allele [2] | GDS scores, patients with an ε4 allele compared with those without [2] | number of patients showing a 50% reduction in GDS, ε4 carriers compared with noncarriers [2] | 50% reduction in GDS score, ε4 carriers compared with noncarriers [2] | CGI scores, ε4 carriers compared with noncarriers ([3]; Caucasian patients) | CGI scores, ε4 carriers compared with those without an ε4 allele ([3]; full cohort) | mean MMSE score, ε4 carriers compared with noncarriers [4] | also measured |
| --- | --- | --- | --- | --- | --- | --- | --- | --- | --- | --- | --- | --- | --- | --- | --- |
| Fc1ccc([C@@H]2CCNC[C@H]2COc2ccc3c(c2)OCO3)cc1 [paroxetine] | less improvement | higher scores | higher scores | none | none | slower onset of anti-depressant action | no effect | no difference | no significant difference | no significant effect | no effect | no differences | higher scores | significantly lower | HDRS-17 50% responders (50% decrease in HDRS-17 score over baseline) [1, 7]: none; MMSE score, subjects with an ε4 allele compared with those without ([4]; Caucasian subjects, trend, p=0.05): lower MMSE score; number of patients who discontinued due to adverse events, ε4 carriers compared with noncarriers ([5]; Caucasian subjects): no significant differences; number of patients who discontinued due to adverse events, ε4 carriers compared with noncarriers ([5]; full cohort): no significant differences; plasma drug concentrations, ε4 carriers compared with non-ε4 carriers ([6]; Caucasian subjects): no differences; plasma drug concentrations, ε4 carriers compared with non-ε4 carriers ([6]; full cohort): no differences |
| CN1CCN2c3ncccc3Cc3ccccc3C2C1 (stereo not shown) [mirtazapine, 1,2,3,4,10,14b-hexahydro-2-methylpyrazino [2,1-a]pyrido[2,3-c]benzazepine] | greater improvement | significantly lower scores | significantly lower scores | 48% | 28% | higher rate of antidepressant response | significantly lower | significantly more likely | large decrease | significantly more | significantly more | significantly better | significantly lower scores | no effect | improvement in HDRS-17 scores, mirtazapine-treated compared with paroxetine-treated patients ([1]; day 7, full cohort): significantly greater improvement; mean HDRS-17 scores, mirtazapine compared with paroxetine [1, 8]: significantly lower; mean HDRS-21 scores, mirtazapine compared with paroxetine [1, 8]: significantly lower; percentage of ε4 carriers responding to medication treatment (50% reduction in HDRS-17, HDRS-21, HDRS-17 remission, 50% reduction in GDS), mirtazapine compared with paroxetine ([1]; day 14, Caucasian subjects): greater; improvement in HDRS-17 scores, mirtazapine-treated compared with paroxetine-treated patients ([1]; day 14, full cohort): Significantly greater improvement; improvement in HDRS-21 scores, mirtazapine-treated compared with paroxetine-treated patients ([1]; day 14, full cohort): Significantly greater improvement; HDRS-17 50% responders, ε4 carriers compared with those without an ε4 allele ([1]; day 14, full cohort, p=0.049): significantly more; HDRS-17 remitters ([1]; day 14, patients without an ε4 allele, full cohort): 7.1%; CGI scores, mirtazapine treated compared with paroxetine treated subjects ([3]; Caucasian patients, p=0.037): significantly better; improvement in CGI scores, mirtazapine-treated compared with paroxetine-treated patients ([3]; full cohort): Significantly greater improvement; number of patients who discontinued due to adverse events, ε4 carriers compared with noncarriers ([5]; in vivo): no significant differences; plasma drug concentrations, ε4 carriers compared with non-ε4 carriers ([6]; in vivo): no differences |
